pIC50: −log10 of the molar value.
System: 628569-122-R-J1-PDC complex spheroid viability
Assay: Anticancer human tumor 628569-122-R-J1-PDC patient-derived head and neck squamous carcinoma cell line growth inhibition [CLK]
Conditions: for pIC50: curve of first compound; for viability, T/C: stronger effect = lower value
In short: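 Multi-cell-type spheroids combined patient-derived tumor cells with HUVEC endothelial cells and human mesenchymal stem cells. Paired agents were dosed in half-log steps down from about clinical Cmax, or from 10 microM where Cmax was unknown.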
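Further: spheroids exposed to agents for seven days before readout.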
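Wherever viability, T/C is given: 100% = DMSO vehicle control viability.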

CC(CO)NC(=O)c1cc(-c2ccc(Cl)cc2)nn(-c2cnn(C)c2)c1=O (configuration not stated) + CN1CCN(c2cc(C(=O)Nc3cc4cc(-c5cnn(C)c5)ccc4cn3)ccn2)CC1
pIC50 (second compound 0.0316 µM): < 5.00
pIC50 (second compound 0.1 µM): < 5.00
pIC50 (second compound 0.316 µM): < 5.00
pIC50 (second compound 1 µM): > 7.50
pIC50 (second compound 3.16 µM): > 7.50
pIC50 (second compound 10 µM): > 7.50
viability, T/C (second compound 0.0316 µM, first compound 0.0316 µM): 141%
viability, T/C (second compound 0.0316 µM, first compound 0.1 µM): 195%
viability, T/C (second compound 0.0316 µM, first compound 0.316 µM): 196%
viability, T/C (second compound 0.0316 µM, first compound 1 µM): 216%
viability, T/C (second compound 0.0316 µM, first compound 3.16 µM): 205%
viability, T/C (second compound 0.0316 µM, first compound 10 µM): 173%
viability, T/C (second compound 0.1 µM, first compound 0.0316 µM): 113%
viability, T/C (second compound 0.1 µM, first compound 0.1 µM): 142%
viability, T/C (second compound 0.1 µM, first compound 0.316 µM): 151%
viability, T/C (second compound 0.1 µM, first compound 1 µM): 152%
viability, T/C (second compound 0.1 µM, first compound 3.16 µM): 152%
viability, T/C (second compound 0.1 µM, first compound 10 µM): 148%
viability, T/C (second compound 0.316 µM, first compound 0.0316 µM): 62.6%
viability, T/C (second compound 0.316 µM, first compound 0.1 µM): 63.5%
viability, T/C (second compound 0.316 µM, first compound 0.316 µM): 68.9%
viability, T/C (second compound 0.316 µM, first compound 1 µM): 77.1%
viability, T/C (second compound 0.316 µM, first compound 3.16 µM): 73%
viability, T/C (second compound 0.316 µM, first compound 10 µM): 76.2%
viability, T/C (second compound 1 µM, first compound 0.0316 µM): 8.6%
viability, T/C (second compound 1 µM, first compound 0.1 µM): 5.35%
viability, T/C (second compound 1 µM, first compound 0.316 µM): 7.74%
viability, T/C (second compound 1 µM, first compound 1 µM): 6.71%
viability, T/C (second compound 1 µM, first compound 3.16 µM): 4.91%
viability, T/C (second compound 1 µM, first compound 10 µM): 5.72%
viability, T/C (second compound 3.16 µM, first compound 0.0316 µM): 7.85%
viability, T/C (second compound 3.16 µM, first compound 0.1 µM): 5.72%
viability, T/C (second compound 3.16 µM, first compound 0.316 µM): 7.76%
viability, T/C (second compound 3.16 µM, first compound 1 µM): 7.17%
viability, T/C (second compound 3.16 µM, first compound 3.16 µM): 7.12%
viability, T/C (second compound 3.16 µM, first compound 10 µM): 7.82%
viability, T/C (second compound 10 µM, first compound 0.0316 µM): 4.35%
viability, T/C (second compound 10 µM, first compound 0.1 µM): 2.99%
viability, T/C (second compound 10 µM, first compound 0.316 µM): 3.66%
viability, T/C (second compound 10 µM, first compound 1 µM): 2.79%
viability, T/C (second compound 10 µM, first compound 3.16 µM): 4.67%
viability, T/C (second compound 10 µM, first compound 10 µM): 2.07%

From PubChem BioAssay AID2060611 (Molecular Pharmacology Branch, DTP, NCI, 2025)
